SMILES strings stand for the structures.

The first assay relates to TNFα-Freisetzung. In words: Inhibition of TNFα release after LPS stimulation of human whole blood (ELISA). Type of assay: cell-based. To be noted: Homo sapiens, 24 h; bei 10nM; read-out: TNFα-Freisetzung hemmen. The source says: Methodenbeschreibung der Hemmung der TNFα Freisetzung nach LPS Stimulation von humanem Vollblut
Die Stimulierung isolierter Leukozyten für die Freisetzung von Zytokinen kann auf verschiedenen Wegen erfolgen. Lipopolysaccharide (LPS) stellen einen Stimulus für die Untersuchung der Freisetzung von TNFα dar. LPS ist Bestandteil bakterieller Zellwände und wird beim Abtöten der Bakterien (durch Antibiotika oder das natürliche Immunsystem) freigesetzt. LPS stimuliert insbesondere die Aktivität phagozytierender Leukozyten (Gewebsmakrophagen, Granulozyten, Monozyten) und verursacht die Infiltration von Leukozyten vom peripheren Blut in das betroffene Gewebe. Ein Zytokin von besonderer Bedeutung für diese Mechanismen ist TNFα, das in großen Mengen durch die betroffenen Zellen sezerniert wird. Hauptquelle dabei sind Monozyten und Makrophagen. TNFα initiiert und prolongiert den Entzündungsprozess im Zusammenspiel mit anderen Mediatoren.
Für die Untersuchung des Effektes auf die LPS-induzierte TNFα-Freisetzung wurde eine Methode verwendet, die von MARX et al. (Marx D, Tassabehji M, Heer S, Hüttenbrink KB, Szelenyi I (2002) Pulmonary Pharmacology & Therapeutics 15 7-15) beschrieben wurde. Die Methode in Kürze: Humanes Blut wurde von verschiedenen Spendern entnommen, durch Zusatz von 10 mM Na-Citrat ungerinnbar gemacht und 1:5 mit RPMI 1640 Zellkulturmedium verdünnt. Die Testsubstanzen wurden den Blutproben in verschiedenen Konzentrationen zugefügt. 15 Minuten später wurden die Leukozyten durch Zusatz von Lipopolysacchariden (LPS) aus Salmonella abortus equi in einer Endkonzentration von 1µg/ml stimuliert. Nach Inkubation der Testansätze für 24 Stunden bei 37°C. und unter 5% CO2 in wassergesättigter Luft, wurde das Blut zentrifugiert und die Konzentration an TNFα im zellfreien Überstand unter Verwendung eines käuflichen ELISA (BD Biosciences) nach Angaben des Herstellers exakt vermessen.
(In general: ELISA stands for enzyme-linked immunosorbent assay.)
For `COc1ccc(-c2cc(C)c3c(n2)sc2c(=O)[nH]c(=O)[nH]c23)cc1OC` [7-(3,4-Dimethoxyphenyl)-9-methyl-pyrido[3',2':4,5]thieno[3,2-d]pyrimidin-2,4-dion], the inhibition at 0.01 µM is more than 20%.
Regarding `Cc1cc(C)c2c(n1)sc1c(=O)[nH]c(=O)[nH]c12` [7,9-Dimethyl-pyrido[3',2':4,5]thieno[3,2-d]pyrimidin-2,4-dion], the inhibition at 0.01 µM was more than 20%.
`CCc1nc2c(sc3nc(-c4ccccc4)cc(C)c32)c(=O)[nH]1` [2-Ethyl-9-methyl-7-phenyl-pyrido[3',2':4,5]thieno[3,2-d]pyrimidin-4-on]: the inhibition at 0.01 µM is more than 20%.
In the case of `COc1ccc(-c2cc(C)c3c(n2)sc2c(=O)[nH]c(=O)[nH]c23)cc1` [7-(4-Methoxyphenyl)-9-methyl-pyrido[3',2':4,5]thieno[3,2-d]pyrimidin-2,4-dion], the inhibition at 0.01 µM is more than 20%.
Same read-out and setting: as for `Cc1cc(-c2ccccc2)nc2sc3c(=O)[nH]c(=O)[nH]c3c12` [9-Methyl-7-phenyl-pyrido[3',2':4,5]thieno[3,2-d]pyrimidin-2,4-dion], the figure is more than 20%; as for `CCCc1nc2c(sc3nc(-c4ccccc4)cc(-c4cccnc4)c32)c(=O)[nH]1` [7-Phenyl-2-n-propyl-9-(pyrid-3-yl)-pyrido[3',2':4,5]thieno[3,2-d]pyrimidin-4(3H)-on], more than 20%.

The same assay, now with this note: Homo sapiens, 24 h; bei 100nM; read-out: TNFα-Freisetzung hemmen.
Turning to `O=c1[nH]c(=O)c2sc3nc(-c4ccccc4)cc(-c4ccccc4)c3c2[nH]1` [7,9-Diphenyl-pyrido[3',2':4,5]thieno[3,2-d]pyrimidin-2,4-dion], the inhibition at 0.1 µM was more than 10%.
For `CSc1nc2c(sc3nc(-c4ccccc4)cc(C)c32)c(=O)[nH]1` [9-Methyl-2-methylthio-7-phenyl-pyrido[3',2':4,5]thieno[3,2-d]pyrimidin-4(3H)-on], the inhibition at 0.1 µM was more than 10%.
`Cc1c(-c2ccc([N+](=O)[O-])cc2)c(-c2ccccc2)nc2sc3c(=O)[nH]c(=O)[nH]c3c12` [9-Methyl-8-(4-nitrophenyl)-7-phenyl-pyrido[3',2':4,5]thieno[3,2-d]pyrimidin-2,4(1H,3H)-dion]: the inhibition at 0.1 µM is more than 10%.

Still in this assay, the particulars now being: bei 10nM.
Compound `Cc1cc(-c2ccc(F)cc2)nc2sc3c(=O)[nH]c(=O)[nH]c3c12` [7-(4-Fluorphenyl)-9-methyl-pyrido[3',2':4,5]thieno[3,2-d]pyrimidin-2,4-dion] showed a TNFα-Freisetzung hemmen of more than 20%.
The same measure, in the same setting: as for `O=C(O)c1nc2c(sc3nc(-c4ccccc4)ccc32)c(=O)[nH]1` [7-Phenyl-pyrido[3',2':4,5]thieno[3,2-d]pyrimidin-4(3H)-on-2-carbonsäure], the figure is more than 20%.

Still in this assay, the particulars now being: bei 100nM.
The compound `Cc1nc2c(sc3nc(-c4ccc(Br)cc4)cc(C)c32)c(=O)[nH]1` [7-(4-Brom-phenyl)-2,9-dimethyl pyrido[3',2':4,5]thieno[3,2-d]pyrimidin-4(3H)-on] showed a TNFα-Freisetzung hemmen of more than 10%.
In turn, `CCOC(=O)c1nc2c(sc3nc(-c4ccccc4)ccc32)c(=O)[nH]1` [7-Phenyl-pyrido[3',2':4,5]thieno[3,2-d]pyrimidin-4(3H)-on-2-carbonsäureethylester] displayed a TNFα-Freisetzung hemmen of more than 10%.

The record behind these values is patent publication EP1619197A1, “Substituted Pyrido[3',2':4,5]thieno[3,2-d]pyrimidin-2,4(1H,3H)diones and -4(3H)ones as well as Pyrido[3',2':4,5]furo[3,2-d]-pyrimidin-2,4(1H,3H)diones und -4(3H)ones as inhibitors of TNF-alpha release” (Curacyte Discovery GmbH, priority 2004, dated 2006).
